Reference: PubChem BioAssay (NCI)
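Exposure lasted 48 hours, with cells grown in 96-well plates and compounds tested at five concentrations. At the GI50, growth is halved. TGI denotes the concentration required for complete inhibition of growth.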

How the values were obtained:
Assay in all cases: DTP human tumour cell line panel, 48 h
[1] = test system: KM12 colon
[2] = test system: MALME-3M melanoma
[3] = test system: OVCAR-5 ovarian
[4] = test system: SNB-75 CNS
[5] = test system: OVCAR-3 ovarian
[6] = test system: HCT-116 colon
[7] = test system: NCI-H23 lung
[8] = test system: HS 578T breast
[9] = test system: NCI-H522 lung
[10] = test system: SR leukemia

## c1cc[c]([Sn]([S]c2cccc3cccnc23)([S]c2cccc3cccnc23)[c]2ccccc2)cc1
[1]
  GI50: 0.23 µM
  TGI: 0.616 µM
[2]
  GI50: 0.168 µM
  TGI: 0.547 µM
[3]
  GI50: 1.34 µM
  TGI: 2.69 µM
[4]
  GI50: 0.192 µM
  TGI: 1.16 µM
[5]
  GI50: 0.165 µM
  TGI: 0.361 µM
[6]
  GI50: 0.175 µM
  TGI: 0.324 µM
[7]
  GI50: 0.198 µM
  TGI: 0.46 µM

## CN1CCN(c2ccc(NC3=C(Cl)C(=O)c4ncccc4C3=O)cc2C#N)CC1
[1]
  GI50: 10.8 µM
  TGI: 25.4 µM
[8]
  GI50: 2.14 µM
  TGI: 5.47 µM
[2]
  GI50: 1.47 µM
  TGI: 2.81 µM
[3]
  GI50: 2.75 µM
  TGI: 7.3 µM
[4]
  GI50: 11.7 µM
  TGI: 24.8 µM
[5]
  GI50: 0.229 µM
  TGI: 1 µM
[6]
  GI50: 1.72 µM
  TGI: 3.36 µM
[7]
  GI50: 2.15 µM
  TGI: 6.22 µM

## c1cc(-c2cn[nH]c2)cc(-c2cn[nH]c2)c1
[9]
  TGI: > 100 µM
[1]
  TGI: > 100 µM
[10]
  TGI: > 100 µM
[4]
  TGI: 42.7 µM
[5]
  TGI: > 100 µM
[6]
  TGI: 49.4 µM
[7]
  TGI: > 100 µM

## CCCCCCC#CC#Cc1cccc(=O)o1
[9]
  GI50: 1.8 µM
  TGI: 27.8 µM
[1]
  GI50: 3.83 µM
  TGI: 14.3 µM
[8]
  GI50: 1.99 µM
  TGI: 6.49 µM
[2]
  GI50: 1.56 µM
  TGI: 3.79 µM
[3]
  GI50: 2.25 µM
  TGI: 4.95 µM
[4]
  GI50: 4.34 µM
  TGI: 37.3 µM
[5]
  GI50: 2.04 µM
  TGI: 4.8 µM
[6]
  GI50: 0.985 µM
  TGI: 2.34 µM
[7]
  GI50: 0.848 µM
  TGI: 2.25 µM

## C=CCC(N[C@H](CO)c1ccccc1)c1cn(S(=O)(=O)c2ccc(C)cc2)c2ccccc12 (stereo partly specified)
[9]
  GI50: 18.6 µM
  TGI: 47.7 µM
[1]
  GI50: 19.8 µM
  TGI: 68.4 µM
[8]
  GI50: 24.3 µM
  TGI: 60.5 µM
[3]
  GI50: > 100 µM
  TGI: > 100 µM
[4]
  GI50: 66.2 µM
  TGI: > 100 µM
[5]
  GI50: > 100 µM
  TGI: > 100 µM
[6]
  GI50: 17 µM
  TGI: 31.6 µM
[7]
  GI50: 20.3 µM
  TGI: 43.5 µM

## BrC1=CC=C2NCCCCCCN=C3C=CC(Br)=CC=C3NCCCCCCN=C2C=C1
[9]
  TGI: > 25.5 µM
[1]
  TGI: > 25.5 µM
[2]
  TGI: > 25.5 µM
[3]
  TGI: > 25.5 µM
[4]
  TGI: > 25.5 µM
[5]
  TGI: > 25.5 µM
[6]
  TGI: > 25.5 µM
[7]
  TGI: > 25.5 µM

## COc1ccc2c(c1)cn1c3ccc(O)cc3[nH]c(=O)c21
[9]
  GI50: 0.0442 µM
  TGI: 1.24 µM
[1]
  GI50: 0.329 µM
  TGI: 5.39 µM
[8]
  GI50: 0.481 µM
  TGI: 25.2 µM
[10]
  GI50: 0.0543 µM
  TGI: 2.7 µM
[3]
  GI50: 2.79 µM
  TGI: 21.5 µM
[4]
  GI50: 0.227 µM
  TGI: 13.6 µM
[5]
  GI50: 0.0968 µM
  TGI: 1.74 µM
[6]
  GI50: 0.0567 µM
  TGI: 1.61 µM
[7]
  GI50: 0.292 µM
  TGI: 15.5 µM

## Oc1c(I)cc(-c2nc3ccccc3s2)cc1CN(Cc1ccccn1)Cc1ccccn1
[9]
  GI50: 0.415 µM
  TGI: 14.4 µM
[1]
  GI50: 0.4 µM
  TGI: 17.4 µM
[8]
  GI50: 1.61 µM
  TGI: 93 µM
[2]
  GI50: 0.288 µM
  TGI: 4.79 µM
[3]
  GI50: 0.928 µM
  TGI: 53.2 µM
[5]
  GI50: 0.534 µM
  TGI: 11.7 µM
[6]
  GI50: 0.494 µM
  TGI: 12.4 µM
[7]
  GI50: 0.866 µM
  TGI: > 100 µM

## COC(=O)OCc1ccc2c(c1)C(=O)c1c-2n(CCCBr)c(=O)c2cc([N+](=O)[O-])ccc12
[9]
  GI50: > 100 µM
  TGI: > 100 µM
[1]
  GI50: > 100 µM
  TGI: > 100 µM
[8]
  GI50: 31 µM
  TGI: > 100 µM
[2]
  GI50: > 100 µM
  TGI: > 100 µM
[3]
  GI50: > 100 µM
  TGI: > 100 µM
[4]
  GI50: 14.9 µM
  TGI: 34.4 µM
[5]
  GI50: > 100 µM
  TGI: > 100 µM
[6]
  GI50: 81.2 µM
  TGI: > 100 µM

## COc1ccc(C(=O)C(C(=O)C(=O)Nc2nccs2)c2ccc(OC)cc2)cc1 (stereo unspecified)
[9]
  TGI: > 100 µM
[1]
  TGI: > 100 µM
[2]
  TGI: > 100 µM
[3]
  TGI: > 100 µM
[4]
  TGI: > 100 µM
[5]
  TGI: > 100 µM
[6]
  TGI: > 100 µM
[7]
  TGI: > 100 µM

## CCCCN(CCCC)C(=O)C(=O)C(C)C(=O)CC (stereo unspecified)
[9]
  TGI: > 100 µM
[1]
  TGI: > 100 µM
[2]
  TGI: > 100 µM
[3]
  TGI: > 100 µM
[4]
  TGI: > 100 µM
[5]
  TGI: > 100 µM
[7]
  TGI: > 100 µM

## CC1CCP(=O)(c2ccccc2)CC1 (stereo unspecified)
[1]
  TGI: > 100 µM
[2]
  TGI: > 100 µM
[3]
  TGI: > 100 µM
[4]
  TGI: > 100 µM
[5]
  TGI: > 100 µM
[7]
  TGI: > 100 µM

## O=C(Nc1cccc(O)c1)c1cccc(NC2=C(Cl)C(=O)N(Cc3ccccc3)C2=O)c1
[9]
  GI50: 3.08 µM
  TGI: 17.4 µM
[1]
  GI50: 11.4 µM
  TGI: 25 µM
[8]
  GI50: 12.7 µM
  TGI: 43.5 µM
[10]
  GI50: 0.315 µM
  TGI: 3.36 µM
[3]
  GI50: 12.1 µM
  TGI: 28 µM
[4]
  GI50: 18.4 µM
  TGI: 36.3 µM
[5]
  GI50: 8.16 µM
  TGI: 23 µM
[6]
  GI50: 18.1 µM
  TGI: 32 µM
[7]
  GI50: 20.6 µM
  TGI: 35.8 µM

## C#C[C@H](CCCC)OC(=O)N[C@H](C)c1ccccc1
[9]
  TGI: 86.8 µM
[1]
  TGI: > 100 µM
[10]
  TGI: 99.4 µM
[3]
  TGI: 99 µM
[4]
  TGI: > 100 µM
[5]
  TGI: > 100 µM
[6]
  TGI: 63.4 µM

## O=C1c2ccn(CCCCN3CCCCC3)c2C(=O)c2c1c(O)c1ccccc1c2O
[9]
  GI50: 11.1 µM
  TGI: 56 µM
[1]
  GI50: 8.55 µM
  TGI: 27.5 µM
[8]
  GI50: 27 µM
  TGI: 65.1 µM
[2]
  GI50: 7.58 µM
  TGI: 20.4 µM
[3]
  GI50: 17.9 µM
  TGI: > 46 µM
[4]
  GI50: 8.45 µM
  TGI: > 73.8 µM
[5]
  GI50: 10.5 µM
  TGI: 41.9 µM
[6]
  GI50: 7.76 µM
  TGI: > 53.9 µM
[7]
  GI50: 23.1 µM
  TGI: > 48.3 µM

## Cc1cccc(C)c1NC(=O)CCC(=O)NC(N)=S
[9]
  TGI: > 100 µM
[1]
  TGI: > 100 µM
[10]
  TGI: > 100 µM
[2]
  TGI: > 100 µM
[3]
  TGI: > 100 µM
[4]
  TGI: > 100 µM
[5]
  TGI: > 100 µM
[6]
  TGI: > 100 µM
[7]
  TGI: > 100 µM

## O=[N+]([O-])[O-].O=[N+]([O-])[O-].[Au].[Au].c1ccc([P-]c2ccccc2)cc1.c1ccc([P-]c2ccccc2)cc1
[9]
  GI50: 3.64 µM
  TGI: 46.3 µM
[1]
  GI50: 46.3 µM
  TGI: > 100 µM
[2]
  GI50: 19.8 µM
  TGI: 47 µM
[3]
  GI50: > 100 µM
  TGI: > 100 µM
[4]
  GI50: 51.4 µM
  TGI: > 100 µM
[5]
  GI50: 26.4 µM
  TGI: 55.4 µM
[6]
  GI50: 44.2 µM
  TGI: > 100 µM
[7]
  GI50: 36 µM
  TGI: > 100 µM

## C1=C(c2ccccc2)SC=C(c2ccccc2)S1
[1]
  TGI: > 100 µM
[8]
  TGI: > 100 µM
[2]
  TGI: > 100 µM
[3]
  TGI: > 100 µM
[4]
  TGI: 64 µM
[5]
  TGI: > 100 µM
[6]
  TGI: > 100 µM
[7]
  TGI: > 100 µM
